Reference: US7858620B2, “Cyanoisoquinoline” (H. Lundbeck A/S, priority 2007, dated 2010)

Legend:
PDE10A enzyme = molecular target: T1, PDE10A enzyme (Homo sapiens, UniProt Q9Y233); experiment: PDE10A inhibition assay, SPA; assay type: biochemical; conditions: column head 2,1334003; unit inferred, nM
T1 construct: made in house; host or cells: E. coli BL21(DE3)
Procedure: Active PDE10A enzyme is prepared in a number of ways for use in PDE assays (Loughney, K. et al. Gene 1999, 234, 109-117; Fujishige, K. et al. Eur J Biochem. 1999, 266, 1118-1127 and Soderling, S. et al. Proc. Natl. Acad. Sci. 1999, 96, 7071-7076). PDE10A can be expressed as full-length proteins or as truncated proteins, as long as they express the catalytic domain. PDE10A can be prepared in different cell types, for example insect cells or E. coli. An example of a method to obtain catalytically active PDE10A is as follows: The catalytic domain of human PDE10A (amino acids 440-779 from the sequence with accession number NP 006652) is amplified from total human brain total RNA by standard RT-PCR and is cloned into the BamH1 and Xho1 sites of the pET28a vector (Novagen). Expression in coli is performed according to standard protocols. Briefly, the expression plasmids are transformed into the BL21(DE3) E. coli strain, and 50 mL cultures inoculated with the cells allowed to grow to an OD600 of 0.4-0.6 before protein expression is induced with 0.5 mM IPTG. Following induction, the cells are incubated overnight at room temperature, after which the cells are collected by centrifugation. Cells expressing PDE10A are resuspended in 12 mL (50 mM TRIS-HCl-pH8.0, 1 mM MgCl2 and protease inhibitors). The cells are lysed by sonication, and after all cells are lysed, TritonX100 is added according to Novagen protocols.
PDE10A and Pde3A assays can for example be performed as follows: PDE10A and Pde3A assays are performed in 60 uL samples containing a fixed amount of the relevant PDE enzyme (sufficient to convert 20-25% of the cyclic nucleotide substrate), a buffer (50 mM HEPES7.6; 10 mM MgCl2; 0.02% Tween20), 0.1 mg/ml BSA, 225 pCi of ^3H-labelled cyclic nucleotide substrate, tritium labeled cAMP to a final concentration of 5 nM and varying amounts of inhibitors. Reactions are initiated by addition of the cyclic nucleotide substrate, and reactions are allowed to proceed for one hr at room temperature before being terminated through mixing with 15 uL 8 mg/mL yttrium silicate SPA beads (Amersham). The beads are allowed to settle for one hr in the dark before the plates are counted in a Wallac 1450 Microbeta counter. The measured signal can be converted to activity relative to an uninhibited control (100%) and IC50 values can be calculated using the Xlfit extension to EXCEL.

catalepsy in rats = conditions: cited from earlier work
[1] = tested on: PCP induced hyperactivity in rats; conditions: cited from earlier work
[2] = tested on: amphetamine induced hyperactivity; conditions: rat, in vivo; cited from earlier work

T1 sequence (Q9Y233 716-1055): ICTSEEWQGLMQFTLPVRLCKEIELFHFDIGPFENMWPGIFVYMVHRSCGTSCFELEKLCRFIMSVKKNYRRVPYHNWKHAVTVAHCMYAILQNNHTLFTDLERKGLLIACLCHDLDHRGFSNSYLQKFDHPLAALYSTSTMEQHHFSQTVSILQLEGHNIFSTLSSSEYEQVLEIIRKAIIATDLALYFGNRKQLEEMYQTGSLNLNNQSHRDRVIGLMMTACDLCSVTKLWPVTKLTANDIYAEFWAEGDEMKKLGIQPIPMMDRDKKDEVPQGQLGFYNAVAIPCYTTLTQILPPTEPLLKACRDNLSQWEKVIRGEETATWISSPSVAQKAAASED

Compound | IC50 (PDE10A enzyme) | further results
COc1cc2c(N3CCNC(c4ccc(N5CCOCC5)cc4)C3)nc(C)c(C#N)c2cc1OC (stereo not drawn) [Compound 51, 6,7-Dimethoxy-3-methyl-1-[3-(4-morpholin-4-yl-phenyl)-piperazin-1-yl]-isoquinoline-4-carbonitrile] | 1500 nM | –
COc1cc2c(C#N)cnc(N3CCN[C@H](c4ccccc4)C3)c2cc1OC [Compound 52, 6,7-Dimethoxy-1-(®-3-phenyl-piperazin-1-yl)-isoquinoline-4-carbonitrile] | 210 nM | –
COc1ccc(C2CN(c3ncc(C#N)c4cc(OC)c(OC)cc34)CCN2)c(C)c1 (stereo not drawn) [Compound 53, 6,7-Dimethoxy-1-[3-(4-methoxy-2-methyl-phenyl)-piperazin-1-yl]-isoquinoline-4-carbonitrile] | 500 nM | –
COc1ccc(C2CN(c3ncc(C#N)c4cc(OC)c(OC)cc34)CCN2)cc1F (stereo not drawn) [Compound 54, 1-[3-(3-Fluoro-4-methoxy-phenyl)-piperazin-1-yl]-6,7-dimethoxy-isoquinoline-4-carbonitrile] | 36 nM | –
CCOc1ccc(C2CN(c3ncc(C#N)c4cc(OC)c(OC)cc34)CCN2)cc1 (stereo not drawn) [Compound 55, 1-[3-(4-Ethoxy-phenyl)-piperazin-1-yl]-6,7-dimethoxy-isoquinoline-4-carbonitrile] | 200 nM | –
COc1ccc(C2CN(c3ncc(C#N)c4cc(OC)c(OC)cc34)CCN2)cc1Cl (stereo not drawn) [Compound 56, 1-[3-(3-Chloro-4-methoxy-phenyl)-piperazin-1-yl]-6,7-dimethoxy-isoquinoline-4-carbonitrile] | 81 nM | –
COc1cc2c(C#N)cnc(N3CCNC(c4ccc(OC(C)C)cc4)C3)c2cc1OC (stereo not drawn) [Compound 57, 1-[3-(4-Isopropoxy-phenyl)-piperazin-1-yl]-6,7-dimethoxy-isoquinoline-4-carbonitrile] | 530 nM | –
COc1ccc(C2CN(c3ncc(C#N)c4cc(OC)c(OC)cc34)CCN2)c(OC)c1 (stereo not drawn) [Compound 58, 1-[3-(2,4-Dimethoxy-phenyl)-piperazin-1-yl]-6,7-dimethoxy-isoquinoline-4-carbonitrile] | 850 nM | –
CCOc1ccc(C2CN(c3ncc(C#N)c4cc(OC)c(OC)cc34)CCN2)cc1C (stereo not drawn) [Compound 59, 1-[3-(4-Ethoxy-3-methyl-phenyl)-piperazin-1-yl]-6,7-dimethoxy-isoquinoline-4-carbonitrile] | 650 nM | –
COc1cc2c(C#N)cnc(N3CCNC(c4ccc(OC(F)(F)F)cc4)C3)c2cc1OC (stereo not drawn) [Compound 60, 6,7-Dimethoxy-1-[3-(4-trifluoromethoxy-phenyl)-piperazin-1-yl]-isoquinoline-4-carbonitrile] | 2300 nM | –
COc1ccc([C@@H]2CN(c3ncc(C#N)c4cc(OC)c(OC)cc34)CCN2)cc1 [Compound 61, 6,7-Dimethoxy-1-[(R)-3-(4-methoxy-phenyl)-piperazin-1-yl]-isoquinoline-4-carbonitrile] | 1200 nM | –
COc1ccc([C@H]2CN(c3ncc(C#N)c4cc(OC)c(OC)cc34)CCN2)cc1 [Compound 62, 6,7-Dimethoxy-1-[(S)-3-(4-methoxy-phenyl)-piperazin-1-yl]-isoquinoline-4-carbonitrile] | 47 nM | –
COc1cc2c(C#N)cnc(N3CCNC(c4ccc(OC(C)C)c(C)c4)C3)c2cc1OC (stereo not drawn) [Compound 63, 1-[3-(4-Isopropoxy-3-methyl-phenyl)-piperazin-1-yl]-6,7-dimethoxy-isoquinoline-4-carbonitrile] | 870 nM | –
COc1cc(C)c(C2CN(c3ncc(C#N)c4cc(OC)c(OC)cc34)CCN2)c(C)c1 (stereo not drawn) [Compound 64, 6,7-Dimethoxy-1-[3-(4-methoxy-2,6-dimethyl-phenyl)-piperazin-1-yl]-isoquinoline-4-carbonitrile] | 2100 nM | –
COc1cc2c(C#N)cnc(N3CCNC(c4cc(C)c(OC)c(C)c4)C3)c2cc1OC (stereo not drawn) [Compound 65, 6,7-Dimethoxy-1-[3-(4-methoxy-3,5-dimethyl-phenyl)-piperazin-1-yl]-isoquinoline-4-carbonitrile] | 1700 nM | –
COc1cc2c(C#N)cnc(N3CCNC(c4ccc5c(c4)OCCO5)C3)c2cc1OC (stereo not drawn) [Compound 66, 1-[3-(2,3-Dihydro-benzo[1,4]dioxin-6-yl)-piperazin-1-yl]-6,7-dimethoxy-isoquinoline-4-carbonitrile] | 130 nM | –
COc1cc2c(C#N)cnc(N3CCNC(c4ccc(OCC(C)C)cc4)C3)c2cc1OC (stereo not drawn) [Compound 67, 1-[3-(4-Isobutoxy-phenyl)-piperazin-1-yl]-6,7-dimethoxy-isoquinoline-4-carbonitrile] | 1100 nM | –
COc1cc2c(C#N)cnc(N3CCNC(c4ccc(OC)c(C(F)(F)F)c4)C3)c2cc1OC (stereo not drawn) [Compound 68, 6,7-Dimethoxy-1-[3-(4-methoxy-3-trifluoromethyl-phenyl)-piperazin-1-yl]-isoquinoline-4-carbonitrile] | 440 nM | –
CCOc1ccc(C2CN(c3ncc(C#N)c4cc(OC)c(OC)cc34)CCN2)c(C)c1 (stereo not drawn) [Compound 69, 1-[3-(4-Ethoxy-2-methyl-phenyl)-piperazin-1-yl]-6,7-dimethoxy-isoquinoline-4-carbonitrile] | 790 nM | –
COc1ccc(C2CN(c3ncc(C#N)c4cc(OC)c(OC)cc34)CCN2)cc1NC(C)=O (stereo not drawn) [Compound 70, N-{5-[4-(4-Cyano-6,7-dimethoxy-isoquinolin-1-yl)-piperazin-2-yl]-2-methoxy-phenyl}-acetamide] | 66 nM | –
COc1ccc(Cc2nccc3cc(OC)c(OC)cc23)cc1OC [Papaverin] | – | catalepsy on its own (catalepsy in rats; alone): did not cause catalepsy on its own; effect on cataleptic effect of haloperidol (catalepsy in rats; with D2 receptor antagonist haloperidol): potentiated the cataleptic effect; hyperactivity induced by PCP [1]: reduced hyperactivity; reduction of amphetamine induced hyperactivity [2]: insignificant
